Data set [1] can be described thus: Dynamic viscosity (Anton Paar Stabinger SVM3000 viscometer). The class given is physicochemical. Here is the method:
The dynamic viscosities of various compounds were measured in a viscometer (Anton Paar Stabinger SVM3000 viscometer).
In addition, the dynamic viscosities of various absorbents (without acid gas loading) were measured in the same instrument.

Data set [2] in a line: pKA determination by titration with hydrochloric acid (pH at half-equivalence). Particulars: for pKA1: 1st dissociation stage; for pKA2: 2nd dissociation stage.
From the text: Measurement was accomplished using a thermostated closed jacketed vessel in which the liquid was blanketed with nitrogen. The Hamilton Polylite Plus 120 pH electrode was used, which was calibrated with pH 7 and pH 12 buffer solutions.
Data set [3] in a line: Thermal stability (decomposition level of the amine in acid-gas-laden absorbent). The class given is physicochemical. Particulars: 160° C., 125 h, 30% by weight amine solution. How it is done:
A Hastelloy cylinder (10 mL) was initially charged with the absorbent (30% by weight amine solution, 8 mL) and the cylinder was closed. […] The acid gas loading of the solutions was 20 m^3 (STP)/tsolvent of CO2 and 20 m^3 (STP)/tsolvent of H2S. The decomposition level of the amines was calculated from the amine concentration measured by gas chromatography before and after the experiment.

[4] abbreviates: absorbent: amine 30% by wt. in EG 70% by wt., without acid gas loading.
[5] abbreviates: absorbent: amine 30% by wt. in sulfolane 70% by wt., without acid gas loading.

Take `CN(C)CCOCCN(C)C` [BDMAEE, bis(2-(N,N-dimethylamino)ethyl) ether]: the Dynamic viscosity in data set [1] (setting [4]) came out at 12.3 mPa · s; in data set [1] (setting [5]), 3.6 mPa · s; in data set [1] (amine compound itself), 0.9 mPa · s. For the same compound, in data set [2] (0.01 mol/kg amine, 20° C.), the pKA1 stood at 9.7. Also, in data set [2] (0.01 mol/kg amine, 20° C.), the pKA2 came out at 8.2.
As for `CCC(N)(CO)CO` [AEPD, 2-amino-2-ethylpropane-1,3-diol, reference compound], the Dynamic viscosity in data set [1] (setting [4]) was determined as 25.3 mPa · s; in data set [1] (amine compound itself), 1844 mPa · s.
The corresponding values for `CC(C)(C)NCCOCCO` [TBAEE, 2-(2-tert-butylaminoethoxy)ethanol, reference compound] are 17.2 mPa · s and 16.9 mPa · s.
With `CN(C)CCOCCNC(C)(C)C` [TBAEEDA, 2-(2-tert-butylaminoethoxy)ethyl-N,N-dimethylamine], the “Thermal stability (comparison in words)” value in data set [3] was “higher thermal stability than MDEA”. In addition, the Dynamic viscosity was found to be 5.5 mPa · s in data set [1] (setting [5]) and 1.5 mPa · s in data set [1] (amine compound itself). Further, the pKA1 in data set [2] (0.01 mol/kg amine, 20° C.) is on record as 10.4. Besides, the pKA2 in data set [2] (0.01 mol/kg amine, 20° C.) is reported as 8.4. Further, the “ΔpKA1 (120-20° C.)” value in data set [2] (difference of pKA1 between 120° C. and 20° C.) came to 2.4.
In turn, `CN(C)CCN(C)CCN(C)C` [PMDETA, pentamethyldiethylenetriamine] came in with a Dynamic viscosity in data set [1] (absorbent: amine 30% by wt. in TEG 70% by wt., without acid gas loading) of 15.3 mPa · s. The same compound showed a Dynamic viscosity in data set [1] (amine compound itself) of 1.0 mPa · s. In addition, in data set [2] (0.01 mol/kg amine, 20° C.), the pKA1 was determined as 10.3 and the pKA2 came to 8.8. Besides, the pKA3 in data set [2] (0.01 mol/kg amine, 20° C., 3rd dissociation stage) worked out at 6.5.

Source of the values: patent US20180304191A1, “METHOD FOR THE SELECTIVE REMOVAL OF HYDROGEN SULFIDE” (BASF SE, priority 2015, published 2018).
